Data reported in patent publication US20250289793A1, “MACROCYCLIC INHIBITORS OF ATP CITRATE LYASE” (Esperion Therapeutics, Inc., priority 2022, published 2025).

Assays:
ACLY [1] = biological target: T1, ACLY (Homo sapiens (Human), UniProt P53396); test: Human ACLY (hACLY) RF/MS activity assay; assay type: biochemical; conditions: 1 nM hACLY; 30 min pre-incubation; 15 μM Coenzyme A, 50 μM ATP, 50 μM citrate; CoA to Acetyl-CoA by RF/MS; read-out: RFMS IC50 GMean
Description: Compounds of the disclosure were evaluated for their efficacy in inhibiting hACLY using rapid fire mass spectrometry (RF/MS).
The final reaction volume for each compound was 20 μl and consisted of buffer (50 mM Hepes pH 8.0, 10 mM MgCl2, 0.003% BSA, 0.01% Brij35, 50 mM NaCl, 4 mM DTT) and 1 nM hACLY, EV12992, PP6692) using Greiner, 384 well small volume, deep well plates (Cat #784201). A two-fold dilution series with a top concentration of 10 μM was used to record a concentration response curve. Both the substrate (CoA) and product (Acetyl-CoA) were quantified, and given a ratio. […] The final DMSO-concentration was 1% (v/v). Compounds were pre-incubated for 30 min with the buffered enzyme solution at RT (20° C.), and substrate solution was added (final concentrations: 15 μM Coenzyme A, 50 μM ATP and 50 μM citrate) to initiate the enzyme reaction. The enzyme reaction was incubated for additional 30 min at RT. The reaction was quenched upon addition of 40 μl of 5% Formic acid in H2O and centrifuged (4350 rpm at 20° C. for 10 min).
Product formation was quantified using a RF/MS-based method based on mass change of CoA (substrate) to Acetyl-CoA (product).

ACLY [2] = biological target: T1, ACLY; test: InCell Pulse assay (permeate HEK293 cells, bind to and stabilize ACLY); assay type: cell-based; conditions: HEK293 cells transfected with pICP-ACLY(FL)-ePL; 1 hour at 37° C., 55° C. heat pulse 10 minutes; read-out: InCell Pulse IC50 GMean
Description: HEK293 cells transfected for 24 hours with pICP-ACLY(FL)-ePL (3 μg DNA per T25 flask) using FuGene HD (Promega Corp.) were harvested and cryopreserved. On the day of the assay, the frozen transfected cells were thawed at 37° C., and the storage medium (DMEM with 2 mM L-Glutamine, 10% FBS and a final concentration of DMSO 10%) was exchanged with assay medium (OptiMEM; Gibco™, ThermoFischer Scientific). Compounds were 3-fold serially diluted in DMSO over 11-point concentration range. 100 nL of the corresponding dilutions were spotted into the assay plate (Greiner AG; 384 Well, PP, Small Volume, Deep Well, Natural, cat. no. 784201) followed by the addition of 20 μL of cell suspension adjusted with assay medium to 7.5E4 cells/mL. Subsequently, the plates were sealed and incubated for 1 hour at 37° C. Afterwards, the plates were fixed upside down in a rack and incubated in a 55° C. water bath for 10 minutes. Following this heat pulse step, plates were allowed to reach room temperature for 10 minutes and centrifuged for a few seconds at 1000 rpm and room temperature. 25 μL EA detection solution (working solution: 0.0167× InCell EA Reagent, 0.15× InCell Dilution Buffer, 0.167× InCell Lysis Buffer; 0.667× InCell Substrate Reagent; InCell Hunter Detection kit; Eurofins DiscoverX; cat. no. 96-0079) were added to each well. Afterwards, 42 μL were transferred from the assay plate to the detection plate (Corning Inc., 384-well Low Flange Black Flat Bottom Polystyrene NBS Microplate, cat. no. 3575), followed by an incubation for 1 hour at room temperature, a centrifugation step for 1 minute at 1000 rpm and the detection of the luminescence signal using an EnVision microplate reader (Perkin Elmer Inc.). Concentration-response curve-fitting and IC50 determination was performed using Evotec's in-house evaluation software APlus with a four-parameter non-linear regression fit model. Data was normalized to 0.5% (final concentration) DMSO as low/negative control and 1 μM (final concentration) NDI-094311 as high/positive control.

T1 sequence (P53396 whole entry): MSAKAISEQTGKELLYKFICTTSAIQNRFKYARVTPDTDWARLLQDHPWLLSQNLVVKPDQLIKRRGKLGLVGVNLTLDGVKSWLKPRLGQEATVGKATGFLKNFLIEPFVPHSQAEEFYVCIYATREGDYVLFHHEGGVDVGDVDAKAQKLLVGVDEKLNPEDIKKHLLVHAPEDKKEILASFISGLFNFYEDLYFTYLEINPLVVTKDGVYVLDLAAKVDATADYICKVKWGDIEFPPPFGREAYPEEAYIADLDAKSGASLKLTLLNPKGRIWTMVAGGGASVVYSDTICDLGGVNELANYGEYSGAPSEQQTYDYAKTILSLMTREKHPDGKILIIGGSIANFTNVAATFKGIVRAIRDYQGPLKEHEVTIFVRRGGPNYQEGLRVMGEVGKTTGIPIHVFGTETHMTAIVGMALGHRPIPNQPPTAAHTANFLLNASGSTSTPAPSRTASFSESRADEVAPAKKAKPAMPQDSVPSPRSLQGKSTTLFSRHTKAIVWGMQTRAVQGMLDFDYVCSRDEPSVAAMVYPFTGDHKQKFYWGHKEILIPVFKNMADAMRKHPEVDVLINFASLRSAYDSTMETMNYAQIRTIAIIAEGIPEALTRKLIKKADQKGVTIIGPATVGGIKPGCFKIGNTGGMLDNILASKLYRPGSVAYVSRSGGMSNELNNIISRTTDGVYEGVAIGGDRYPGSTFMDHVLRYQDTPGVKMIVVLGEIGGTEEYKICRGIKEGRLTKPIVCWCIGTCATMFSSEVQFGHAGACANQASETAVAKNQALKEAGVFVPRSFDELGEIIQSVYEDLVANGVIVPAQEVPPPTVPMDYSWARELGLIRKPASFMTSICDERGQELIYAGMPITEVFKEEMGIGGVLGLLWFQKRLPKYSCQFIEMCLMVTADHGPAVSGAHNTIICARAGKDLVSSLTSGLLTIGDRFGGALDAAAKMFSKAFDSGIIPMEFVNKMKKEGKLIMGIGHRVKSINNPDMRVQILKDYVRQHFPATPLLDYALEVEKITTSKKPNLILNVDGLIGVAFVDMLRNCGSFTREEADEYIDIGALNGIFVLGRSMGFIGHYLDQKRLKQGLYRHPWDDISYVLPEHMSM

| Structure (SMILES) | IC50 (ACLY [1]) [µM] | IC50 (ACLY [2]) [µM] |
| --- | --- | --- |
| O=C1c2cc(Cl)c(O)c(c2)S(=O)(=O)Nc2cc(c(F)cc2F)-c2ccccc2OCC2CN1C2 [Compound 33, 16-chloro-22,24-difluoro-17-hydroxy-19,19-dioxo-8-oxa-19λ6-thia-12,20-diazapentacyclo[19.3.1.110,12.114,18.02,7]heptacosa-1(25),2,4,6,14,16,18(26),21,23-nonaen-13-one] | 0.02 to 0.1 | 0.3 to 1 |
| Cc1cc2cc(n1)S(=O)(=O)Nc1cc(c(F)cc1F)-c1ccccc1OCCOC2=O [Compound 62, 21,23-difluoro-15-methyl-18,18-dioxo-8,11-dioxa-18λ6-thia-16,19-diazatetracyclo[18.3.1.113,17.02,7]pentacosa-1(24),2,4,6,13,15,17(25),20,22-nonaen-12-one] | ≥ 10 | ≥ 50 |
| O=C1OCCOc2ccccc2-c2cc(c(F)cc2F)NS(=O)(=O)c2cc1ccc2C(F)F [Compound 60, 16-(difluoromethyl)-21,23-difluoro-18,18-dioxo-8,11-dioxa-18λ6-thia-19-azatetracyclo[18.3.1.113,17.02,7]pentacosa-1(23),2(7),3,5,13(25),14,16,20(24),21-nonaen-12-one] | ≥ 10 | ≥ 50 |
| O=C1OCCCc2ccccc2-c2ccc(F)c(c2)NS(=O)(=O)c2cc1cc(Cl)c2O [Compound 42, 15-chloro-21-fluoro-16-hydroxy-18,18-dioxo-11-oxa-18λ6-thia-19-azatetracyclo[18.3.1.113,17.02,7]pentacosa-1(23),2(7),3,5,13,15,17(25),20(24),21-nonaen-12-one] | 0.02 to 0.1 | < 0.3 |
| O=C1OCCCc2c(sc3ccccc23)-c2cc(c(F)cc2F)NS(=O)(=O)c2cc1cc(Cl)c2O [Compound 22, 18-chloro-24,26-difluoro-19-hydroxy-14-oxa-3,21lambda6-dithia-22-azapentacyclo[21.3.1.1^16,20.0^2,10.0^4,9]octacosa-1(27),2(10),4,6,8,16,18,20(28),23,25-decaene-15,21,21-trione] | 0.02 to 0.1 | ≥ 50 |
| COc1cc(F)c2cc1-c1ccccc1OCCOC(=O)c1cc(Cl)c(O)c(c1)S(=O)(=O)N2 [Compound 47, 15-chloro-21-fluoro-16-hydroxy-23-methoxy-18,18-dioxo-8,11-dioxa-18λ6-thia-19-azatetracyclo[18.3.1.113,17.02,7]pentacosa-1(23),2(7),3,5,13(25),14,16,20(24),21-nonaen-12-one] | 0.02 to 0.1 | < 0.3 |

Now from value to compound:

| IC50 (ACLY [1]) [µM] | IC50 (ACLY [2]) [µM] | Structure (SMILES) |
| --- | --- | --- |
| 0.02 to 0.1 | 0.3 to 1 | CC1CCOC(=O)c2cc(Cl)c(O)c(c2)S(=O)(=O)Nc2cc(c(F)cc2F)-c2ccccc21 (centres unmarked) [Compound 43, 15-chloro-21,23-difluoro-16-hydroxy-8-methyl-18,18-dioxo-11-oxa-18λ6-thia-19-azatetracyclo[18.3.1.113,17.02,7]pentacosa-1(23),2(7),3,5,13,15,17(25),20(24),21-nonaen-12-one] |
| < 0.02 | < 0.3 | O=C1OCCc2ccccc2-c2ccc(F)c(c2)NS(=O)(=O)c2cc1cc(Cl)c2O [Compound 72, 14-chloro-20-fluoro-15-hydroxy-17,17-dioxo-10-oxa-17λ6-thia-18-azatetracyclo[17.3.1.112,16.02,7]tetracosa-1(22),2(7),3,5,12,14,16(24),19(23),20-nonaen-11-one] |
| < 0.02 | 0.3 to 1 | O=S1(=O)Nc2cc(c(F)cc2F)-c2ccccc2OCCOCc2cc(Cl)c(O)c1c2 [Compound 67, 15-chloro-21,23-difluoro-18,18-dioxo-8,11-dioxa-18λ6-thia-19-azatetracyclo[18.3.1.113,17.02,7]pentacosa-1(23),2(7),3,5,13,15,17(25),20(24),21-nonaen-16-ol] |
| ≥ 10 | ≥ 50 | O=C1NCCOc2ccccc2-c2cc(c(F)cc2F)NCc2cc1ccc2O [Compound 13, 21,23-difluoro-16-hydroxy-8-oxa-11,19-diazatetracyclo[18.3.1.1^13,17.0^2,7]pentacosa-1(23),2,4,6,13,15,17(25),20(24),21-nonaen-12-one] |
